According to patent publication US10265378B2, “Combination therapy for head and neck cancer” (Cornell University, priority 2014, dated 2019):

Experiments:
[1] = tested on: MCT4; assay: Immunohistochemistry of tongue epithelium: MCT4; type: in vivo, mouse; conditions: compared to the 4-NQO group; antibody staining
Source text: (§1) The tongues were fixed, embedded in paraffin, and sectioned. Then the tissue sections were stained with various antibodies (magnification, 200×). Four to five representative areas of each tongue section from two to four mice/group were photographed and analyzed (FIGS. 12A and 12B). Interleukin-6 (IL-6) is a multifunctional cytokine that is involved in the regulation of immune responses and cellular functions. IL-6 levels are enhanced in human oral squamous cell carcinoma and IL-6 is considered a bad prognostic factor in this cancer (Expert Opin Ther Targets. 2013 January; 17(1):53-9). IL-6 protein was detected primarily in the basal layer of tongue epithelium in the UNT samples (FIG. 12A, arrows), but in the 4-NQO treated samples we observed both an increase in the protein level and an expansion of IL-6 signal to the suprabasal layers of the tongue epithelium (FIG. 12A).

[2] = tested on: mouse tongue mRNA transcriptome; assay: RNA-Seq analysis of the mRNA transcriptome of mouse tongues; type: in vivo; conditions: compared to the 4-NQO group
Protocol: RNA-Seq analysis of the mRNA transcriptome. One part of each mouse tongue (same position on each mouse tongue) was snap frozen in liquid N2 and stored at −70° C. until total RNA extraction. Total tissue RNA was extracted and subjected to Next-Generation Sequencing (RNA-Seq) at the Genomics Resources Core Facility, Weill Cornell Medical College. Bioinfomatics analyses were performed using the Tophat and Cufflink software. (supporting information).
RNA-Seq analysis of mRNA transcriptome. […] The GEO Accession number is GSE54246; embargoed until publication.

[3] = Consumption of drug containing drinking water and diet; type: in vivo, mouse; conditions: 4-NQO treated mice, 15 week post 4-NQO treatment
Source text: Drug treatments reduce tongue tumor development. All of the mice tolerated the 10 week 4-NQO treatment, and almost all of the mice survived the 15 week post 4-NQO treatment period (A). We determined that the CD1530 in the regular drinking water was stable for at least 7 days at room temperature by HPLC analysis (FIG. 7); thus, we decided to use drinking water as a delivery method because this method is effective and less laborious.

[4] = tested on: pathways (Reactome, KEGG, MouseCyc) in mouse tongue; assay: Pathway enrichment analysis (ConsensusPathDB) of RNA-Seq data
Protocol: RNA-Seq analysis of mRNA transcriptome. Representative tongue samples were chosen for the RNA-Seq analysis: untreated (n=5), 4-NQO treatment group (n=3), 4N+B (n=4), 4N+C (n=4), and 4N+B+C (n=5). The extraction of total cellular RNA from mouse tissues was carried out using the RNeasy kit (Qiagen). Subsequent RNA preparation steps were carried out at the Genomics Resources Core Facility of WCMC. The measurement of RNA integrity was determined using the Agilent 2100 BioAnalyzer (Agilent Technologies). Samples with RNA integrity number (RIN) values of 10 were used to construct cDNA libraries. mRNA was purified by using pre-prepared Sera-mag Magnetic Oligo(dT) Beads from Illumina Inc. (SanDiego, Calif.), subjected to thermal fragmentation, and reverse transcribed to first strand cDNA. Following the removal of mRNA strands by RNaseH, first strand cDNAs were used as templates to produce double strand cDNAs, and the overhangs resulting from fragmentation were repaired to blunt ends. An ‘A’ base was added to the 3′ end of cDNAs and subsequently the cDNAs were ligated to Illumina paired end (PE) adaptors that have a single ‘T’ base overhang at their 3′ end. The cDNA-adaptor libraries were purified and enriched by 15 cycles of PCR. The enriched libraries were hybridized to a flow cell and amplified, resulting in ultra-high density flow cells with millions of clusters, each containing about 1,000 copies of the templates. The double stranded cDNA-adaptors were denatured and converted into single strand DNA, and then the template cDNAs were amplified one more time isothermally to produce surface-bound colonies. The clonal DNA clusters were linearized, free 3′ OH ends blocked, denatured, hybridized to sequencing primers, and sequenced. The sequencing was conducted by running 4 samples per lane with 51 pair-end cycles on the HISeq2000/1000. The Sequencing-by-Synthesis process used reversible terminators and a DNA polymerase modified to accept reversible terminator nucleotides. After each synthesis cycle the fluorescence of clusters was imaged with high sensitivity. Then the sequencing images were analyzed in three steps, image analysis, base calling, and sequence analysis. The Tophat software was used to align raw sequencing reads against the UCSC mm9 mouse reference genome, and Cufflinks software was employed to measure transcript abundances in the unit of fragments per kilobase of exon model per million mapped reads (FPKM), as well as to perform statistical analysis on the changes in gene expression. The heat maps for genes of interest were generated by R package software.

[5] = tested on: IL-6; assay: Immunohistochemistry of tongue epithelium: IL-6; type: in vivo, mouse; conditions: compared to the 4-NQO group; antibody staining
Source text: as §1

[6] = tested on: 4-hydroxynonenal (4-HNE), marker of oxidative stress; assay: Immunohistochemistry of tongue epithelium: 4-HNE; type: in vivo, mouse; conditions: compared to the 4-NQO group; antibody staining
Protocol: (§2) Immunohistochemistry. Paraffin embedded tongue sections were stained with various antibodies (supporting information).
(§3) Immunohistochemistry. Paraffin-embedded sections (from two to four mice per group) were deparaffinized and rehydrated, and antigen retrieval was performed using an antigen unmasking solution (Vector Laboratories, H-3300). After quenching endogenous peroxidase with 3% H2O2, the tissue sections were blocked with the blocking reagent (from the M.O.M. kit from Vector Laboratories for 4-HNE) or 10% goat serum (Vector Laboratories). Then, tissue sections were incubated with a 4-HNE antibody (1:700; mouse monoclonal antibody; Abcam, ab48506), a β-catenin antibody (1:400; rabbit polyclonal antibody; Abcam, ab6302), or a MMP9 antibody (1:70; rabbit polyclonal antibody; Abcam, ab38898), respectively, overnight at 4° C. The sections were then incubated with secondary antibodies (1:200, anti-mouse IgG from the M.O.M kit for 4-1-INE; ready-to-use anti-rabbit IgG from the Invitrogen SuperPicture kit for β-catenin and MMP9). As a negative control, sections were stained without incubation with primary antibodies. The signals were visualized based on a peroxidase detection mechanism with 3,3-diaminobenzidine (DAB) used as the substrate. Four to five representative areas of each mouse tongue section from two to four mice per group were photographed and analyzed.

[7] = tested on: tongue lesions (4-NQO induced oral cavity carcinogenesis); assay: 4-NQO mouse oral cavity carcinogenesis model: gross tongue lesion number and severity
[8] = Mouse serum triglyceride level measurements; type: in vivo; conditions: treatment for 15 weeks; compared to the UNT group
Protocol: Mouse serum triglyceride level measurements. Blood samples from the mice were obtained from mouse tails. The analysis of serum triglyceride levels was carried out at the Laboratory of Comparative Pathology of the Memorial Sloan-Kettering Cancer Center. UNT (n=4); 4-NQO (n=3); 4N+B (n=4); 4N+C (n=3), and 4N+B+C (n=4).

[9] = tested on: GO categories in mouse tongue; assay: Gene ontology (GO) analysis of RNA-Seq data; type: in vivo; conditions: compared to the 4-NQO group
Protocol: Gene ontology (GO) analysis. Gene ontology (GO) analysis (p-value cutoff: 0.00001), using the ConsensusPathDB online tool, was conducted on the Gene Ontology level 3 of the “Biological Process” domain that has predefined, functional sets for enrichment analysis with default parameter settings.

[10] = tested on: β-catenin; assay: Immunohistochemistry of tongue epithelium: β-catenin; type: in vivo, mouse; conditions: compared to the 4-NQO group; antibody staining
Protocol: as §2, §3

[11] = down-regulated vs. 4-NQO group, KEGG
[12] = down-regulated vs. 4-NQO group, Reactome
[13] = upregulated vs. 4-NQO group, KEGG

With `C=C(c1ccc(C(=O)O)cc1)c1cc2c(cc1C)C(C)(C)CCC2(C)C` [bexarotene] the “MCT4 protein levels in the tongue epithelium” value [1] was “lower MCT4 protein levels”, the “transcript levels of DNA replication genes (MCM 2-7 and 10, DNA2, LIG1, ORC1, POLA1, PRIM2)” value [2] was “significantly lower transcript levels of the majority of these genes” and the “number of genes with decreased transcript levels” value ([2]; p<0.05) was 614. The “number of genes with increased transcript levels” value ([2]; p<0.05) was 436, the “number of genes with significantly different transcript levels” value ([2]; p<0.05) was 1050 and the “consumption of drug containing diet vs regular diet” value [3] was “comparable”. The “candidates contained, pathway Cell cycle-Mus musculus (mouse)” value [4, 11] was 19 (15.0%), the “candidates contained, pathway Complement and coagulation cascades-Mus musculus (mouse)” value [4, 11] was 21 (27.6%) and the “candidates contained, pathway Retinol metabolism-Mus musculus (mouse)” value [4, 11] was 14 (17.7%). For the same compound, the “candidates contained, pathway Activation of ATR in response to replication stress” value [4, 12] was 10 (26.3%), the “candidates contained, pathway Activation of the pre-replicative complex” value [4, 12] was 9 (31.0%) and the “candidates contained, pathway Cell Cycle” value [4, 12] was 46 (15.1%). The “candidates contained, pathway Cell Cycle Checkpoints” value [4, 12] was 16 (20.8%), the “candidates contained, pathway Cell Cycle, Mitotic” value [4, 12] was 44 (16.4%) and the “candidates contained, pathway Common Pathway” value [4, 12] was 6 (46.2%). For the same compound, the “candidates contained, pathway DNA Replication” value [4, 12] was 34 (21.7%), the “candidates contained, pathway DNA Replication Pre-Initiation” value [4, 12] was 10 (27.8%) and the “candidates contained, pathway Formation of Fibrin Clot (Clotting Cascade)” value [4, 12] was 10 (29.4%). For the same compound, the “candidates contained, pathway G1/S Transition” value [4, 12] was 12 (19.4%), the “candidates contained, pathway G2/M Checkpoints” value [4, 12] was 13 (28.9%) and the “candidates contained, pathway HDL-mediated lipid transport” value [4, 12] was 7 (41.2%). The “candidates contained, pathway Hemostasis” value [4, 12] was 37 (12.3%), the “candidates contained, pathway Lipid digestion, mobilization, and transport” value [4, 12] was 11 (22.4%) and the “candidates contained, pathway Lipoprotein metabolism” value [4, 12] was 11 (35.5%). The “candidates contained, pathway M Phase” value [4, 12] was 22 (22.2%), the “candidates contained, pathway M/G1 Transition” value [4, 12] was 10 (27.8%) and the “candidates contained, pathway Metabolism of amino acids and derivatives” value [4, 12] was 21 (16.9%). The “candidates contained, pathway Mitotic G1-G1/S phases” value [4, 12] was 14 (19.2%), the “candidates contained, pathway Mitotic M-M/G1 phases” value [4, 12] was 32 (23.7%) and the “candidates contained, pathway Mitotic Prometaphase” value [4, 12] was 21 (22.1%). For the same compound, the “candidates contained, pathway Phenylalanine and tyrosine catabolism” value [4, 12] was 5 (62.5%), the “candidates contained, pathway Platelet degranulation” value [4, 12] was 15 (23.4%) and the “candidates contained, pathway Response to elevated platelet cytosolic Ca2+” value [4, 12] was 15 (21.4%). For the same compound, the “candidates contained, pathway Calcium signaling pathway-Mus musculus (mouse)” value [4, 13] was 15 (8.4%), the “candidates contained, pathway Gastric acid secretion-Mus musculus (mouse)” value [4, 13] was 10 (13.7%) and the “IL-6 protein levels in the tongue epithelium” value [5] was “lower IL-6 protein levels”. For the same compound, the “4-HNE levels in tongue samples” value [6] was “lower”, the “number of tongue lesions (gross tongue lesion multiplicity)” value ([7]; C57BL/6 female mice, 4-NQO 10 weeks, then drug in 15 week post 4-NQO period, bexarotene 300 mg/kg diet, CD1530 […]100 ml drinking water, 4-NQO group 5.9±3.2) was 5.3±1.4 and the “average severity of tongue lesions (grade 0-4)” value ([7]; same model, 4-NQO group 2.8±0.8) was 1.9±1.2. For the same compound, the “lesions at grade 1” value ([7]; same model, 4-NQO group all lesions at or greater than grade 2) was 50%, the serum triglyceride levels [8] was “did not change serum triglyceride levels significantly” and the “GO categories related to cell cycle, DNA replication, and mitosis” value [9] was “most under-expressed”. The “β-catenin protein levels in the tongue epithelium” value [10] was “lower β-catenin protein levels”.
